# Literature values, collected in US20150208691A1, “NOVEL USE OF ALKOXYLATES OF MONO- AND POLYVALENT ALCOHOLS” (AB AGRI LIMITED, priority 2012, published 2015).
# Like-named read-outs stand apart in the source and are kept apart here.
# Tests used:
# [1] = test system: methane emissions; settings: sheep
# [2] = test system: methane emissions; settings: cows, compared with sheep
smiles,measurement,setting,value
C=CCS[S+]([O-])CC=C (centres unmarked) [Allicin],reduction of methane emissions,[1],20%
same,reduction of methane emissions,[2],not as effective
